Results taken from patent publication US20100168228A1, “NOVEL CHEMOTHERAPEUTIC AGENTS AGAINST INFLAMMATION AND CANCER” (RELIANCE LIFE SCIENCES PVT. LTD., priority 2006, published 2010).

Assays:
TNFα = test: Bioassay of TNFα production by LPS activated RAW 264.7 macrophages using L929 cell line; type: cell-based; details: Mus musculus; L929 + ActD + supernatant from LPS + compound (10 μM) treated RAW 264.7 macrophage; crystal violet; mean ± S.D. of triplicate; read-out: PERCENTAGE CELL SURVIVAL ± S.D.
Description: Measurement of TNFα in culture medium or supernatant is performed using immunoassay and bioassay. Bioassay was used for the measurement of bioactive TNFα production in the culture medium.
TNFα secretion into the medium by LPS activated macrophage was assayed using L929 tumorigenic murine cells (ATCC) specifically sensitive to TNFα. L929 cell cytotoxicity assay was performed by a modified method (Sano et al., The Journal of Immunology, 1999, 163: 387-395 The Journal of Immunology, 1999, 163: 387-395) based on that described elsewhere (Flick D A, Gifford G E. J Immunol Methods. 1984 Mar. 30; 68(1-2): 167-175). Briefly, the L929 cells (log phase cells) were seeded into a flat bottom 96 well plates (6×10^4/well) in 100 μl volume of RPMI 1640 containing 2% FCS and incubated overnight at 37° C. in a 5% CO2 incubator. A working dilution of the culture supernatant collected from LPS (200 ng/ml) activated macrophage in a volume of 100 μl per well was first tested to obtain 70-75% cytotoxicity equivalent to […] of recombinant TNFα standard to the TNFα sensitive L929 cell line. After incubation of the L929 cells appropriate fixed dilution of the culture supernatant collected from the compound treated (10 μM) wells, containing the LPS stimulated macrophages in a volume of 100 μl with 2 μg/ml Actinomycin D (Act D) was taken and added to the L929 cells and the cells were incubated at room temperature for 15 min followed by 18 h incubation at 37° C. overnight with 5% CO2. On the next day the medium was removed and the cells were stained with 0.2% (w/v) crystal violet for 10 minutes. The wells were gently rinsed with water, and 33% acetic acid (100 μl/well) was added to extract the retained crystal violet. The absorbance at 570 nm was finally measured.
Tumor necrosis factor-α can cause direct cytotoxicity to the lung fibroblast cell line (L929). Bioassay of TNF α is designated on the basis of this cytotoxicity of TNF α, which can be used for the identification of murine TNF α activity in tissue culture supernatants. Culture supernatant collected from the synthetic molecules treated well containing LPS stimulated macrophage modulated the extent of cytotoxicity to the L929 cells (see Table 1).

RAW 264.7 cells = test: Nitrite quantification (Griess) in LPS stimulated macrophages; type: cell-based, mouse; details: RAW 264.7 + LPS (200 ng/ml) + 10 μM compound, 24 h; LPS + DMSO control 14.560, basal 0.782
Description: NO2^− accumulation was used as an indicator of Nitric Oxide (NO) production in the medium as described previously (Green et al., 1982 Anal Biochem 126, 131-138). […] The isolated supernatants were mixed with an equal volume of Griess reagent (1% sulfanilamide, 0.1% naphthylenediamine dihydrochloride, and 2% phosphoric acid) and incubated at room temperature for 15 min. NaNO2 was used to generate a standard curve, and nitrite production was determined by measuring the optical density at 540 nm.
To estimate the anti-inflammatory effects of all the synthetic molecules listed in this study, we measured the accumulation of nitrite, the stable metabolite of NO, in the culture media using Griess reagent.
To investigate the effect of CAMVE on NO production, we measured the accumulation of nitrite, the stable metabolite of NO, in the culture media using Griess reagent. To investigate the effect of CAMVE on NO production, Raw 264.7 cells, pretreated with indicated concentrations of CAMVE for 1 h were incubated with LPS (250 ng/ml) for 24 h.

Compound | viability at 10 µM (TNFα) [%] | CONCENTRATION OF NITRITE μM ± SD (RAW 264.7 cells) [µM]
C/C=C/c1cc(OC)c2c(c1)[C@@H](C)[C@H](c1ccc(OC(=O)/C=C/c3ccc(O)c(O)c3)c(OC)c1)O2 (racemic) [compound 5, (±)-2β-[4-O-(3,4,-dihydroxycinnamoyl)-3-methoxyphenyl]-3α-methyl-7-methoxy-5-[(E)-1-propenyl]-2,3 dihydrobenzofuran] | 67.8 ± 0.866 | 3.449 ± 0.315
C/C=C/c1cc(OC)c2c(c1)[C@@H](C)[C@H](c1ccc(OC(=O)c3ccc(O)c(OC)c3)c(OC)c1)O2 (racemic) [compound 16, (±)-2β-[4-O-(3-methoxy-4-hydroxybenzoyl)-3-methoxyphenyl]-3α-methyl-7-methoxy-5-[(E)-1-propenyl]-2,3-dihydrobenzofuran] | 49 ± 1.99 | 8.449 ± 0.234
C/C=C/c1cc(OC)c2c(c1)[C@@H](C)[C@H](c1ccc(OC(=O)/C=C/c3ccc(O)c(OC)c3)c(OC)c1)O2 (racemic) [compound 25, (±)-2β-[4-O-(3-methoxy-4-hydroxycinnamoyl)-3-methoxyphenyl]-3α-methyl-7-methoxy-5-[(E)-1-propenyl]-2,3-dihydrobenzofuran] | 53.7 ± 2.05 | 7.871 ± 0.168
C/C=C/c1cc(OC)c2c(c1)[C@@H](C)[C@H](c1ccc(OC(=O)/C=C/c3ccc(O)cc3)c(OC)c1)O2 (racemic) [compound 29, (±)-2β-[4-O-(4-hydroxycinnamoyl)-3-methoxyphenyl]-3α-methyl-7-methoxy-5-[(E)-1-propenyl]-2,3-dihydrobenzofuran] | 50.6 ± 1.49 | 8.382 ± 0.454
COC(=O)/C=C/c1ccc(OC(=O)/C=C/c2ccc(O)c(O)c2)c(OC)c1 [compound 2, 2-methoxy-4-[(1E)-3-methoxy-3-oxoprop-1-en-1-yl]phenyl (2E)-3-(3,4 dihydroxyphenyl)acrylate] | 68 | 2.404 ± 0.168
COC(=O)c1ccccc1OC(=O)/C=C/c1ccc(O)c(O)c1 [compound 3, Methyl 2-{[(2E)-3-(3,4-dihydroxyphenyl)prop-2-enoyl]oxy}benzoate] | 67 ± 2.3 | 3.022 ± 0.300
C=CCc1ccc(OC(=O)/C=C/c2ccc(O)c(O)c2)c(OC)c1 [compound 4, 4-allyl-2-methoxyphenyl (2E)-3-(3,4-dihydroxyphenyl)acrylate] | 69.1 ± 1.49 | 3.093 ± 0.437
COC(=O)/C=C/c1cc(OC)c2c(c1)[C@@H](C(=O)OC)[C@H](c1ccc(OC(=O)/C=C/c3ccc(O)c(O)c3)c(OC)c1)O2 [compound 6, Methyl (E)-3-[2β-{4-O-(3,4-dihydroxycinnamoyl)-3-methoxyphenyl}-7-methoxy-3α-methoxycarbonyl-2,3-dihydro-1-benzofuran-5-yl]prop-2-enoate] | 66.6 ± 1.49 | 3.204 ± 0.168
C/C=C/c1ccc(OC(=O)/C=C/c2ccc(O)c(O)c2)c(OC)c1 [compound 7, 2-methoxy-4-[(1E)-prop-1-en-1-yl]phenyl(2E)-3-(3,4-dihydroxyphenyl)acrylate] | 65.3 ± 1.11 | 3.760 ± 0.546
COc1cc(C=O)ccc1OC(=O)/C=C/c1ccc(O)c(O)c1 [compound 8, 4-formyl-2-methoxyphenyl (2E)-3-(3,4-dihydroxyphenyl)acrylate] | 67.8 ± 1.25 | 3.893 ± 0.133
COC(=O)c1ccccc1OC(=O)c1ccc(O)c(OC)c1 [compound 9, 2-(Methoxycarbonyl)phenyl 4-hydroxy-3-methoxybenzoate] | 51.1 ± 2.77 | 7.582 ± 0.868
COC(=O)c1ccc(OC(=O)c2ccc(O)c(OC)c2)c(OC)c1 [compound 10, 2-methoxy-4-(methoxycarbonyl)phenyl 4-hydroxy-3-methoxy benzoate] | 51.6 ± 1.4 | 6.849 ± 0.806
COC(=O)/C=C/c1ccc(OC(=O)c2ccc(O)c(OC)c2)c(OC)c1 [compound 11, 2-methoxy-4-[(1E)-3-methoxy-3-oxoprop-1-en-1yl]phenyl 4-hydroxy-3-methoxybenzoate] | 52.4 ± 1.51 | 5.604 ± 0.668
COC(=O)/C=C/c1cc(OC)c2c(c1)[C@@H](C(=O)OC)[C@H](c1ccc(OC(=O)c3ccc(O)c(OC)c3)c(OC)c1)O2 [compound 12, Methyl(E)-3-[2β-{4-O-(3-methoxy-4-hydroxyphenylcarbonyl)-3-methoxyphenyl}-7-methoxy-3α-methoxycarbonyl-2,3-dihydro-1-benzofuran-5-yl]prop-2-enoate] | 51.3 ± 1.21 | 9.582 ± 0.482
C=CCc1ccc(OC(=O)c2ccc(O)c(OC)c2)c(OC)c1 [compound 13, 4-allyl-2-methoxyphenyl 4-hydroxy-3-methoxybenzoate] | 50.6 ± 1.6 | 8.004 ± 0.379
C/C=C/c1ccc(OC(=O)c2ccc(O)c(OC)c2)c(OC)c1 [compound 14, 2-Methoxy-4-[(1E)-prop-1en-1-yl]phenyl4-hydroxy-3-methoxy benzoate] | 51 ± 1.91 | 8.382 ± 0.278
COc1cc(C(=O)Oc2ccc(C=O)cc2OC)ccc1O [compound 15, 4-formyl-2-methoxyphenyl 4-hydroxy-3-methoxybenozoate] | 50.9 ± 1.84 | 8.271 ± 0.342
COC(=O)c1ccc(OC(=O)/C=C/c2ccc(O)cc2)c(OC)c1 [compound 17, methyl 4-{[(2E)-3-(4-hydroxyphenyl)prop-2-enoyl]oxy}-3-methoxy benzoate] | 51.9 ± 1.43 | 8.404 ± 0.315
COC(=O)/C=C/c1ccc(OC(=O)/C=C/c2ccc(O)cc2)c(OC)c1 [compound 18, 2-methoxy-4-[(1E)-3-methoxy-3-oxoprop-1-en-1-yl]phenyl (2E)-3-(4-hydroxyphenyl)acrylate] | 50.4 ± 1.57 | 7.960 ± 0.437
COc1cc(C=O)ccc1OC(=O)/C=C/c1ccc(O)cc1 [compound 19, 4-formyl-2-methoxyphenyl (2E)-3-(4-hydroxyphenyl)acrylate] | 51.6 ± 1.57 | 8.227 ± 0.115
COC(=O)c1ccccc1OC(=O)/C=C/c1ccc(O)cc1 [compound 20, methyl 2-{[(2E)-3-(4-hydroxyphenyl)prop-2-enoyl]oxy}benzoate] | 51.9 | 8.493 ± 0.267
C=CCc1ccc(OC(=O)/C=C/c2ccc(O)cc2)c(OC)c1 [compound 21, 4-allyl-2-methoxyphenyl (2E)-3-(4-hydroxyophenyl)acrylate] | 52.3 ± 1.25 | 8.293 ± 0.371
COC(=O)/C=C/c1ccc(OC(=O)/C=C/c2ccc(O)cc2)c(OC(=O)/C=C/c2ccc(O)cc2)c1 [compound 22, methyl [3,4-bis O-(4-hydroxyphenylacryloyl)]phenylacrylate] | 65.6 ± 1.33 | 3.982 ± 0.301
C/C=C/c1ccc(OC(=O)/C=C/c2ccc(O)cc2)c(OC)c1 [compound 23, 2-methoxy-4-[(1E)-prop-1-en-1-yl]phenyl (2E)-3-(4-hydroxyphenyl)acrylate] | 51.2 ± 1.55 | 8.338 ± 0.204
COC(=O)/C=C/c1cc(OC)c2c(c1)[C@@H](C(=O)OC)[C@H](c1ccc(OC(=O)/C=C/c3ccc(O)cc3)c(OC)c1)O2 [compound 24] | 50.3 ± 1.28 | 8.582 ± 0.214
